Experimental findings from US10745346B2, “Agonists of protein tyrosine phosphatase SHP-1” (priority 2015, dated 2020) are described below.

pIC50: −log10 of the molar value.

Test [1] deals with Recombinant SHP-1 protein (Homo sapiens, UniProt P29350). The test is described as follows: SHP-1 phosphatase activity assay (RediPlate 96 EnzChek Tyrosine Phosphatase Assay kit). Type of test: biochemical. Particulars: SC derivatives at 1 μM for 2 hr; recombinant SHP-1 25 ng; control DMSO = 100; mean±SD (N=3). An outline of the steps:
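Recombinant human SHP-1 (25 ng) was incubated for 2 h with compound at 1 μM, using a DMSO solvent control. Tyrosine phosphatase activity was then measured with the EnzChek kit by absorbance at 465 nm. Values are mean±SD, N=3.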

Test [2] deals with PLC5 cells (a hepatocellular carcinoma cell line). The test is described as follows: Cytotoxicity, MTT cell viability assay. The format is cell-based. Particulars: 72 h exposure. Here is the method: PLC5 cells (a hepatocellular carcinoma cell line) were seeded at 5×10^3 cells per well in 96-well plates. Then, cells were exposed to SC derivatives at the indicated doses for 72 h. After that, cells were incubated with MTT (1 mg/ml) (Sigma-Aldrich, St. Louis, Mo.) for 2 h at 37° C. Cell viability was then assessed by measuring the absorbance at 570 nm using a microplate reader.
A general note: Formazan colour is commonly taken as a measure of viable cells.

Sequence of Recombinant SHP-1 protein (P29350 whole entry): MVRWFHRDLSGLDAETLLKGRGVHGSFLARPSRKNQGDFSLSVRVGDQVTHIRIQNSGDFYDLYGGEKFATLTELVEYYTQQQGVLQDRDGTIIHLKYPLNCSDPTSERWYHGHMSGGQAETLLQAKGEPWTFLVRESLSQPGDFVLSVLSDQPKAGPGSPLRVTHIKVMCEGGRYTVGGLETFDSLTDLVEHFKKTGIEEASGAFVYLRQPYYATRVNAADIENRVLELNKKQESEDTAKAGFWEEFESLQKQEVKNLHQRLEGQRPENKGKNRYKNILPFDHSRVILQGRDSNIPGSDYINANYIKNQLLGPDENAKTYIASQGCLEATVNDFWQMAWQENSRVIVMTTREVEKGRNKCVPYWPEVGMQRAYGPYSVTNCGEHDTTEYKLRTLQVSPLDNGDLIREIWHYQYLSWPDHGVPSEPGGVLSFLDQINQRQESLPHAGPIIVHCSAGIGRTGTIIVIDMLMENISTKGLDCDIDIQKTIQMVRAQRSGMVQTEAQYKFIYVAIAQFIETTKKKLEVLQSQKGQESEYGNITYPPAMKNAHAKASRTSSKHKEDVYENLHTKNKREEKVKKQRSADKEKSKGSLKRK

By pIC50 is commonly meant −log10 of the IC50, conventionally taken in molar units. Lower therefore signals a high IC50. `N#Cc1ccc(Oc2cc(NC(=O)Nc3cc(C(F)(F)F)cc(C(F)(F)F)c3)ccc2Cl)cc1Cl` [compound 180, 1-(3,5-bis(trifluoromethyl)phenyl)-3-(4-chloro-3-(3-chloro-4-cyanophenoxy)phenyl)urea]: the “SHP-1 Activity (% of control)” value in test [1] was 105.52 ± 0.87 % of control. For the same compound, the pIC50 in test [2] was 6.11.

Consider `N#Cc1ccc(Oc2cc(NC(=O)Nc3ccc(F)c(C(F)(F)F)c3)ccc2Cl)cc1Cl` [compound 181, 1-(4-chloro-3-(3-chloro-4-cyanophenoxy)phenyl)-3-(4-fluoro-3-(trifluoromethyl)phenyl)urea], for which, in test [1], the “SHP-1 Activity (% of control)” value is 106.88 ± 3.58 % of control. The negative-log IC50 (pIC50) in test [2] is 6.03.

For `N#Cc1ccc(Oc2cc(NC(=O)Nc3cc(C(F)(F)F)cc(C(F)(F)F)c3)ccc2Cl)cn1` [compound 182, 1-(3,5-bis(trifluoromethyl)phenyl)-3-(4-chloro-3-((6-cyanopyridin-3-yl)oxy)phenyl)urea], in test [1], the “SHP-1 Activity (% of control)” value was 110.50 ± 6.08 % of control. In test [2], this compound had a pIC50 of 6.25.

In the case of `N#Cc1ccc(Oc2ccc(F)c(NC(=O)Nc3cc(C(F)(F)F)cc(C(F)(F)F)c3)c2)cn1` [compound 183, 1-(3,5-bis(trifluoromethyl)phenyl)-3-(5-((6-cyanopyridin-3-yl)oxy)-2-fluorophenyl)urea], the “SHP-1 Activity (% of control)” value in test [1] is 353.11 ± 30.81 % of control. The pIC50 in test [2] is 6.28.
